Laboratory results reported in a melting point compilation (Tetko et al.).

| Compound | melting point |
| --- | --- |
| O=C(O)Cc1ccc(O)cc1Cl | 171 to 173 °C |
| COc1ccc(CCn2c(S)nc3ccccc3c2=O)cc1OC | 223 to 225 °C |
| CC(O)CNC(=O)c1cccc(O)c1 (stereo not drawn) | 116 to 118 °C |
| COc1c(Br)cc(Cl)cc1S(=O)(=O)Cl | 68 to 70 °C |
| CCN(CC)S(=O)(=O)c1ccc(Oc2cccc(C)c2)c(N)c1 | 122 to 124 °C |
| Nc1cccc(CS(=O)c2ccccc2)c1 (stereo not drawn) | 133 to 135 °C |
| Cc1nc2ccccn2c1I | 123 to 125 °C |
| Cc1nc(/C=C/C(=O)O)cs1 | 177 to 179 °C |
| Cc1nc(N)ccc1C=CC(=O)O | 253 to 255 °C |
| Nc1ccc(C(=O)N2CCOCC2)c(Cl)c1 | 205 to 207 °C |
| O=C(O)C1CCCc2[nH]ncc21 (stereo not drawn) | 176 to 178 °C |
| Cc1cc(C(=O)O)c(Br)s1 | 181 to 183 °C |
| CN(C)c1nc(=NN)cc[nH]1 | 144 to 146 °C |
| Nc1nnc(-c2ccc3c(c2)CCC3)o1 | 273 to 275 °C |
| O=C(CCl)Nc1sc2c(c1C(=O)c1ccccc1)CCCC2 | 110 to 112 °C |
| O=C(CCl)c1ccc(C2CCCCC2)cc1 | 182 to 187 °C |
| O=C1C(=O)N(CN2CCN(CCO)CC2)c2ccccc21 | 157 to 159 °C |
| COC(=O)N1CCc2cc(N)ccc21 | 149 to 151 °C |
| CC(C)Oc1ccc(S(N)(=O)=O)cc1 | 121 to 123 °C |
| Nc1cc(F)c(I)c(F)c1 | 113 to 115 °C |
| CC(C)(C)C(=O)NCCc1ccc(S(N)(=O)=O)s1 | 144 to 146 °C |
| CC(O)c1ccccc1NC(=O)c1ccccc1 (stereo not drawn) | 111 to 113 °C |
| O=C(CCl)NCCc1cccc2ccccc12 | 104 to 106 °C |
| O=C(c1ccc(Cl)c(Cl)c1)C1CC1 | 29 to 31 °C |
| O=Cc1ccc(Cl)c2cccnc12 | 132 to 134 °C |
| NC(=O)c1cccc2[nH]ccc12 | 138 to 140 °C |

| Compound | melting point |
| --- | --- |
| CSc1cc(C)ccc1C(=O)O | 176 to 178 °C |
| CN1CCN(Cc2ccc(N)cc2)CC1 | 96 to 98 °C |
| N#CCOc1ccc(Cl)cc1CBr | 85 to 87 °C |
| O=C(O)CNCc1c(F)cccc1Cl | 184 to 186 °C |
| O=C(O)c1ccc2c(c1)C(=O)N(C1CC1)C2=O | 220 to 222 °C |
| O=C(c1ccc(O)cc1)N1CCCC1 | 168 to 170 °C |
| Nc1cccc(NC(=O)c2ccncc2)c1 | 185 to 187 °C |
| O=C(O)c1cccc(OCC(F)(F)F)n1 | 138 to 140 °C |
| CC(C)(C)C(=O)N1CCCC1C(=O)O (stereo not drawn) | 136 to 138 °C |
| COCCCOc1ccc(C(=O)O)cc1 | 112 to 114 °C |
| N#CCc1cc(Br)c2c(c1)C=CCO2 | 79 to 81 °C |
| O=C(O)CCCOc1ccc(F)cc1F | 74 to 76 °C |
| Cc1scc(C(=O)O)c1C | 139 to 141 °C |
| CCc1cc(C#N)c(N)s1 | 61 to 63 °C |
| Cc1c(F)cc(C(=O)O)cc1[N+](=O)[O-] | 168 to 170 °C |
| CC(Cl)C(=O)Nc1ccc([N+](=O)[O-])cc1Cl (stereo not drawn) | 87 to 89 °C |
| CC(C)c1ccc(-c2nnc(N)s2)cc1 | 205 to 207 °C |
| N#Cc1cn(-c2ccc(N)cc2)nc1N | 195 to 197 °C |
| O=C(O)c1ccc(Oc2cc(Cl)ccc2Cl)cc1 | 169 to 171 °C |
| N#Cc1cccc(N2CCCC2=O)c1 | 81 to 83 °C |
| CC(NC(=O)c1[nH]nc2ccccc12)C(=O)O (stereo not drawn) | 208 to 210 °C |
| O=c1[nH]c(CCl)nc2scc(-c3cccs3)c12 | 219 to 221 °C |
| Cc1nn(-c2ccc(Cl)cc2)cc1C=O | 121 to 123 °C |
| Cc1csc(NC(=O)C2CCNCC2)n1 | 189 to 191 °C |
| O=C(O)CCc1nc(-c2ccc(F)cc2)no1 | 150 to 152 °C |
| CN1CCC(CC(=O)O)CC1 | 150 to 152 °C |

| Compound | melting point |
| --- | --- |
| CC1CCCC(NC(=O)NC(=O)CCl)C1C (stereo not drawn) | 131 to 133 °C |
| NNc1ccc(S(=O)(=O)Nc2ccccn2)cn1 | 218 to 220 °C |
| CC(C)CNC(=O)c1cc(Cl)ccc1N | 137 to 139 °C |
| COc1cc(CCl)ccc1S(C)(=O)=O | 106 to 108 °C |
| CN(C)C(C)(C(=O)O)c1ccc(F)cc1 (stereo not drawn) | 234 to 236 °C |
| O=C(O)C1CCCCC1c1nc2ccccc2s1 (stereo not drawn) | 168 to 170 °C |
| O=C1C=CC(=O)N1c1cccc([N+](=O)[O-])c1 | 129 to 131 °C |
| O=Cc1c[nH]c2cc(F)ccc12 | 176 to 178 °C |
| CNC(=O)c1cccc(NC(=O)C(C)Cl)c1 (stereo not drawn) | 149 to 151 °C |
| CCCn1c(=O)n(C)c(=O)c2c(S)nc(C(C)C)nc21 | 204 to 206 °C |
| CC(O)Cc1ccc(Br)c(F)c1 (stereo not drawn) | 36 to 38 °C |
| CSCc1ccc(C(=O)O)cc1 | 145 to 147 °C |
| O=C(O)CCCNc1ccccc1[N+](=O)[O-] | 115 to 119 °C |
| CC(=O)c1ccc(N2CCC(O)CC2)cc1 | 127 to 129 °C |
| Nc1ncncc1-c1ccccc1 | 155 to 157 °C |
| COCCNS(=O)(=O)c1ccc(Cl)c(C(=O)O)c1 | 142 to 144 °C |
| CCOC(=O)c1ccc(OCC#N)cc1 | 73 to 75 °C |
| CCCC(NC(=O)Cc1ccccc1)C(=O)O (stereo not drawn) | 133 to 135 °C |
| O=C1NC(=O)C(=Cc2ccccc2C(F)(F)F)S1 | 170 to 172 °C |
| CSc1ccc(Cl)nn1 | 104 to 106 °C |
| O=C(O)c1cc(-c2ccccc2)nc2c1cnn2Cc1ccco1 | 242 to 244 °C |
| Oc1ccc(-c2ncc[nH]2)cc1 | 265 to 267 °C |
| Sc1nnnn1-c1ccc(Cl)cc1 | 162 to 164 °C |
| Cn1cc(C#N)cn1 | 59 to 61 °C |
| Nc1nc(CN2CCN(c3ncccn3)CC2)cs1 | 158 to 160 °C |
| O=CN1CC(=O)NC(=O)C1 | 213 to 215 °C |

| Compound | melting point |
| --- | --- |
| O=C(O)c1cc([N+](=O)[O-])cn1Cc1sccc1Br | 190 to 192 °C |
| COc1ccc(CNC(=O)CCl)cc1 | 103 to 105 °C |
| CC(=O)CC(=O)c1ccc(F)cc1 | 48 to 52 °C |
| O=C(O)c1cccc(S(=O)(=O)CC(F)F)c1 | 170 to 172 °C |
| CN(C)S(=O)(=O)c1cccc(CO)c1 | 65 to 67 °C |
| COc1ccc(C(=O)O)cc1-c1ccc(C(C)(C)C)cc1 | 259 to 261 °C |
| CC(NS(=O)(=O)c1cnn(C)c1)C(=O)O (stereo not drawn) | 169 to 171 °C |
| Cc1nc(NC(=N)N)nc2ccccc12 | 339 to 341 °C |
| O=C1CCc2cc(S(=O)(=O)Cl)c(F)cc2N1 | 207 to 209 °C |
| Cc1ccc(S(=O)(=O)Oc2ncnc3c(F)cc(Br)cc23)cc1 | 204 to 206 °C |
| NCC1CC(=O)Nc2ccccc21 (stereo not drawn) | 142 to 144 °C |
| O=C1C=CC(=O)N1c1cccc(O)c1 | 113 to 115 °C |
| Cc1cc(=O)[nH]c(C)c1C(=O)O | 274 to 276 °C |
| Nc1cccc(NC(=O)c2cccnc2)c1 | 155 to 157 °C |
| COc1ccccc1CNC(=O)n1ccnc1 | 128 to 130 °C |
| CCOC(=O)N1CCC(NC(N)=S)CC1 | 160 to 162 °C |
| O=Cc1cn(-c2ccccc2)nc1-c1cccnc1 | 110 to 112 °C |
| OCc1ccncc1Cl | 118 to 120 °C |
| Nc1c(-c2cccnc2)nc2ccccn12 | 179 to 181 °C |
| CS(=O)(=O)CC1(CBr)CC1 | 50 to 52 °C |
| Nc1cc(-c2ccc(Cl)cc2)nn1-c1ccccc1 | 191 to 193 °C |
| CC(C)Cn1ncnc1CO | 92 to 94 °C |
| Cc1cc(C(=O)O)cc(C)c1OC(F)F | 189 to 191 °C |
| N#CCCCS(N)(=O)=O | 49 to 51 °C |
| C=CCNC(=O)NC(C)(C)C(=O)O | 125 to 127 °C |
